Source: ChEMBL document CHEMBL3856191, “Structural modifications at the 6-position of thieno[2,3-d]pyrimidines and their effects on potency at FLT3 for treatment of acute myeloid leukemia” (Eur J Med Chem, 2016)

Experiments:
[1] = target: cAMP-dependent protein kinase catalytic subunit alpha (Homo sapiens) (UniProt P17612); experiment: Inhibition of human recombinant PRKACA expressed in Escherichia coli assessed as remaining activity at 10 uM preincubated for 15 mins followed by PKA substrate peptide addition measured after 30 mins in presence of [gamma-32P]ATP by […] assay
[2] = cells; conditions: Homo sapiens, K562, 48 h
Description: Growth inhibition of human K562 cells after 48 hrs by XTT assay

[3] = target: Tyrosine-protein kinase JAK1 (Homo sapiens) (UniProt P23458); experiment: Inhibition of human JAK1 assessed as remaining activity at 10 uM in presence of [gamma-32P]ATP by […] assay
[4] = Oral bioavailability in Sprague-Dawley rat at 30 mg/kg up to 24 hrs by LC/MS/MS analysis; format: ADME, organism-based; conditions: in vivo
[5] = target: Dual specificity mitogen-activated protein kinase kinase 1 (Homo sapiens) (UniProt Q02750); experiment: Inhibition of recombinant human MEK1 expressed in Escherichia coli assessed as remaining activity at 10 uM preincubated for 15 mins followed by myelin basic protein substrate addition for 30 mins in presence of [gamma-32P]ATP by […] assay
[6] = target: Tyrosine-protein kinase Fes/Fps (Homo sapiens) (UniProt P07332); experiment: Inhibition of recombinant human FES expressed in insect Sf21 cells assessed as remaining activity at 10 uM preincubated for 15 mins followed by poly(Glu:Tyr) substrate addition for 30 mins in presence of [gamma-32P]ATP by […] assay
[7] = target: Tyrosine-protein kinase Lck (Homo sapiens) (UniProt P06239); experiment: Inhibition of recombinant human LCK expressed in insect cells assessed as remaining activity at 10 uM preincubated for 15 mins followed by poly(Glu:Tyr) substrate addition for 30 mins in presence of [gamma-32P]ATP by […] assay
[8] = target: Mitogen-activated protein kinase 11 (Homo sapiens) (UniProt Q15759); experiment: Inhibition of human SAPK2b assessed as remaining activity at 10 uM in presence of [gamma-32P]ATP by […] assay
[9] = target: Tyrosine-protein kinase ZAP-70 (Homo sapiens) (UniProt P43403); experiment: Inhibition of recombinant human ZAP-70 expressed in insect Sf21 cells assessed as remaining activity at 10 uM preincubated for 15 mins followed by poly(Glu:Tyr) substrate addition for 30 mins in presence of [gamma-32P]ATP by […] assay
Chain of Tyrosine-protein kinase ZAP-70 (Homo sapiens) (P43403 whole entry): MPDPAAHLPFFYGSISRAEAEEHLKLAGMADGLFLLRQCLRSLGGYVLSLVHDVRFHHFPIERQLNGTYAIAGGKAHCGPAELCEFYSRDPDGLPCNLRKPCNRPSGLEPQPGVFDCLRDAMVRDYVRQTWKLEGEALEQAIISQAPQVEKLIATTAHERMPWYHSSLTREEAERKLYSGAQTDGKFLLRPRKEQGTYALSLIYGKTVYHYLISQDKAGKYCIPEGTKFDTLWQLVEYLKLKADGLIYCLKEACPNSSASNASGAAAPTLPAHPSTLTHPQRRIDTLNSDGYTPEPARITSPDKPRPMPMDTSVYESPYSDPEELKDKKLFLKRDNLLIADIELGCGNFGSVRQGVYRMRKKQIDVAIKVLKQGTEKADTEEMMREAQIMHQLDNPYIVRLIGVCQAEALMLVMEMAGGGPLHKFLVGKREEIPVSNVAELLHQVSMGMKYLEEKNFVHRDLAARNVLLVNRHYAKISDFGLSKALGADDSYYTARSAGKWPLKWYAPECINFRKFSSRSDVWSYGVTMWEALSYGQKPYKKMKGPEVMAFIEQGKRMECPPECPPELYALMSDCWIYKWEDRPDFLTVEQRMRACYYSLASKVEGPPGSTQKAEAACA

[10] = Elimination half life in Sprague-Dawley rat at 30 mg/kg, po by LC/MS/MS analysis; format: ADME, organism-based; conditions: in vivo, read-out: beta t1/2 (converted)
[11] = target: Epidermal growth factor receptor (Homo sapiens) (UniProt P00533); experiment: Inhibition of human EGFR assessed as remaining activity at 10 uM in presence of [gamma-32P]ATP by […] assay
[12] = Clearance in Sprague-Dawley rat at 5 mg/kg, iv up to 24 hrs by LC/MS/MS analysis; format: ADME, organism-based; conditions: in vivo
[13] = target: Mitogen-activated protein kinase 9 (Homo sapiens) (UniProt P45984); experiment: Inhibition of recombinant human JNK2alpha2 expressed in insect Sf21 cells assessed as remaining activity at 10 uM preincubated for 15 mins followed by ATF2 substrate addition for 30 mins in presence of [gamma-32P]ATP by […] assay
Chain of Mitogen-activated protein kinase 9 (Homo sapiens) (P45984 whole entry, looked up): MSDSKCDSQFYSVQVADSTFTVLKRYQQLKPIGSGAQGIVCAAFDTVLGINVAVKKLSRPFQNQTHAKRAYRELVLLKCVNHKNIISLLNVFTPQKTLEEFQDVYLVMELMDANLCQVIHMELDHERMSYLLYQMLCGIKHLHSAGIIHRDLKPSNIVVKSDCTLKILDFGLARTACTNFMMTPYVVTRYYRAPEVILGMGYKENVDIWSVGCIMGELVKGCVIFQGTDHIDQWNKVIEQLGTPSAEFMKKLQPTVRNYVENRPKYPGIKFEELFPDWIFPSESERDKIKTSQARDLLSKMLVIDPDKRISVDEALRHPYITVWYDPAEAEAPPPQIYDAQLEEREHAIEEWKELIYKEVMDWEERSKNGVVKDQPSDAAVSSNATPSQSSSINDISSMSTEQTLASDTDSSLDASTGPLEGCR

[14] = target: Tyrosine-protein kinase receptor UFO (Homo sapiens) (UniProt P30530); experiment: Inhibition of recombinant human AXL expressed in insect Sf21 cells assessed as remaining activity at 10 uM preincubated for 15 mins followed by poly(Glu:Tyr) substrate addition for 30 mins in presence of [gamma-32P]ATP by […] assay
Chain of Tyrosine-protein kinase receptor UFO (Homo sapiens) (P30530 whole entry): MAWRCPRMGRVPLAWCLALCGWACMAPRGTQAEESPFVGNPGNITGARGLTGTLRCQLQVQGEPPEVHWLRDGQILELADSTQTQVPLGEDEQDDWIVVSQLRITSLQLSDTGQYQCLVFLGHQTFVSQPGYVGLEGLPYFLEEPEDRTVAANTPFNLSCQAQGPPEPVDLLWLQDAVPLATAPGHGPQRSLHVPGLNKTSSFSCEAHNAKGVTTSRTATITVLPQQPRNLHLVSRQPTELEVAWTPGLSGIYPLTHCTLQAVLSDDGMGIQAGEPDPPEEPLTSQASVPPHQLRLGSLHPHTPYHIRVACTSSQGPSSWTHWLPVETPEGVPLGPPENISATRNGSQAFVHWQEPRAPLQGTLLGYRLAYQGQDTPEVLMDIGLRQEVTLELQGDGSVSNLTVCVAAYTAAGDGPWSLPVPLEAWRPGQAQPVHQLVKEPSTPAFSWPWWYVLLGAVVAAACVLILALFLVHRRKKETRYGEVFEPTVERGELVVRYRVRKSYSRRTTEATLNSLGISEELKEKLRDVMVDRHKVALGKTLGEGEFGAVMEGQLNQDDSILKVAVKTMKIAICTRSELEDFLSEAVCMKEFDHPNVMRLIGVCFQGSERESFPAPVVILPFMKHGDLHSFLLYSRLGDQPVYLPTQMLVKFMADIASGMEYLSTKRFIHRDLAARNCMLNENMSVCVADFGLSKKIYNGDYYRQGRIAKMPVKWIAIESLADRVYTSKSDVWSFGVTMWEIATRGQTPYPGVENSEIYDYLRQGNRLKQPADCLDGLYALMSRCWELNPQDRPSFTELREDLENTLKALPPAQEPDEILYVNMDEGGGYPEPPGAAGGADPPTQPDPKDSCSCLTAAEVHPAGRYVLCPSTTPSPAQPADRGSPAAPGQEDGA

[15] = target: Tyrosine-protein kinase BTK (Homo sapiens) (UniProt Q06187); experiment: Inhibition of recombinant human BTK expressed in insect Sf21 cells assessed as remaining activity at 10 uM preincubated for 15 mins followed by poly(Glu:Tyr) substrate addition for 30 mins in presence of [gamma-32P]ATP by […] assay
[16] = target: Tyrosine-protein kinase Blk (Homo sapiens) (UniProt P51451); experiment: Inhibition of BLK (unknown origin) assessed as remaining activity at 10 uM preincubated for 15 mins followed by substrate addition for 30 mins in presence of [gamma-32P]ATP by […] assay
[17] = target: Vascular endothelial growth factor receptor 2 (Homo sapiens) (UniProt P35968); experiment: Inhibition of recombinant human KDR expressed in insect Sf21 cells assessed as remaining activity at 10 uM preincubated for 15 mins followed by poly(Glu:Tyr) substrate addition for 30 mins in presence of [gamma-32P]ATP by […] assay
[18] = cells; conditions: Homo sapiens, THP-1, 48 h
Description: Growth inhibition of human THP1 cells expressing wild type FLT-3 after 48 hrs by XTT assay

[19] = target: Macrophage colony-stimulating factor 1 receptor (Homo sapiens) (UniProt P07333); experiment: Inhibition of recombinant human FMS expressed in insect Sf21 cells assessed as remaining activity at 10 uM preincubated for 15 mins followed by poly(Glu:Tyr) substrate addition for 30 mins in presence of [gamma-32P]ATP by […] assay
[20] = target: Mitogen-activated protein kinase 13 (Homo sapiens) (UniProt O15264); experiment: Inhibition of human SAPK4 assessed as remaining activity at 10 uM in presence of [gamma-32P]ATP by […] assay
Chain of Mitogen-activated protein kinase 13 (Homo sapiens) (O15264 whole entry): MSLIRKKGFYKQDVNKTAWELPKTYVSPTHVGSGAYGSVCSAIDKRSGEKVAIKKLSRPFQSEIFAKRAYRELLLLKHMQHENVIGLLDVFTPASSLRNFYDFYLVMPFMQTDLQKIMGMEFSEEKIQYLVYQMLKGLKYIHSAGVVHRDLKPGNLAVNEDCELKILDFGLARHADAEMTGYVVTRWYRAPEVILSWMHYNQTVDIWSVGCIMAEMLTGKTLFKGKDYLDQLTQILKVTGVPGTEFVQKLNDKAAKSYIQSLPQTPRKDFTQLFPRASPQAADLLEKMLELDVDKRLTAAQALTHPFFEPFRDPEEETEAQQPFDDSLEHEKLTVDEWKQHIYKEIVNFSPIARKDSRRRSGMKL

[21] = target: Platelet-derived growth factor receptor alpha (Homo sapiens) (UniProt P16234); experiment: Inhibition of recombinant human PDGFR-alpha expressed in insect Sf21 cells assessed as remaining activity at 10 uM preincubated for 15 mins followed by poly(Glu:Tyr) substrate addition for 30 mins in presence of [gamma-32P]ATP by […] assay
Chain of Platelet-derived growth factor receptor alpha (Homo sapiens) (P16234 whole entry): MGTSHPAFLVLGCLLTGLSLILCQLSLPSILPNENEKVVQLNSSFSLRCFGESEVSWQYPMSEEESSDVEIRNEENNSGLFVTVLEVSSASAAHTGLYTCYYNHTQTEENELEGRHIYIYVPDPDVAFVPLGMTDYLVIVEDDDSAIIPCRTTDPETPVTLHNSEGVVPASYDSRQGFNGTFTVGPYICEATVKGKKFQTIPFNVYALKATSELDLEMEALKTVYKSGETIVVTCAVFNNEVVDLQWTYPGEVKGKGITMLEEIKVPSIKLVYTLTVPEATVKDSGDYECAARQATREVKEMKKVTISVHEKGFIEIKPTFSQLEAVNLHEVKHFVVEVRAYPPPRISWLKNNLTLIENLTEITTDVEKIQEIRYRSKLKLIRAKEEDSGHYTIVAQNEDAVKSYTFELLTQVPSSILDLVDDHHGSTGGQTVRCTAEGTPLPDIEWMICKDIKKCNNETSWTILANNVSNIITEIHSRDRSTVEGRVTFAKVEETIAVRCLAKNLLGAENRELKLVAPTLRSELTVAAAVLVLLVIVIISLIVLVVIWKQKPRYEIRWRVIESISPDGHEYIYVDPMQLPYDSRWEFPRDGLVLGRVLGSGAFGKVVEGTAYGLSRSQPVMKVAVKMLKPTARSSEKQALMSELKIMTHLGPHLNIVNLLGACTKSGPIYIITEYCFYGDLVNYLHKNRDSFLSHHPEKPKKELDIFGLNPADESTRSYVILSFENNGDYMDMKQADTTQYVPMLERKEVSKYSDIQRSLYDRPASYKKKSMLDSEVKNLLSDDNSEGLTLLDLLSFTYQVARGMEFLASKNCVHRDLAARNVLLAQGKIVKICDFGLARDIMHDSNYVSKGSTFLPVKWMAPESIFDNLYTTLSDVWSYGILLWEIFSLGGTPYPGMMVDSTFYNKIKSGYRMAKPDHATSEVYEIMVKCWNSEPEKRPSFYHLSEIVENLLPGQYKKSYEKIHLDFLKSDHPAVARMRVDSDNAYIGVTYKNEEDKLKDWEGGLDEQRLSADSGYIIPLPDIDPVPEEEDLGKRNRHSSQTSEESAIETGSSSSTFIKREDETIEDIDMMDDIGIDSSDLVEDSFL

[22] = target: Receptor tyrosine-protein kinase erbB-2 (Homo sapiens) (UniProt P04626); experiment: Inhibition of recombinant human ERBB2 expressed in insect cells assessed as remaining activity at 10 uM preincubated for 15 mins followed by poly(Glu:Tyr) substrate addition for 30 mins in presence of [gamma-32P]ATP by […] assay
[23] = target: Serine/threonine-protein kinase pim-1 (Homo sapiens) (UniProt P11309); experiment: Inhibition of recombinant human PIM1 expressed in Escherichia coli assessed as remaining activity at 10 uM preincubated for 15 mins followed by S6 kinase/Rsk2 substrate peptide 2 addition for 30 mins in presence of [gamma-32P]ATP by […] assay
Chain of Serine/threonine-protein kinase pim-1 (Homo sapiens) (P11309 whole entry, looked up): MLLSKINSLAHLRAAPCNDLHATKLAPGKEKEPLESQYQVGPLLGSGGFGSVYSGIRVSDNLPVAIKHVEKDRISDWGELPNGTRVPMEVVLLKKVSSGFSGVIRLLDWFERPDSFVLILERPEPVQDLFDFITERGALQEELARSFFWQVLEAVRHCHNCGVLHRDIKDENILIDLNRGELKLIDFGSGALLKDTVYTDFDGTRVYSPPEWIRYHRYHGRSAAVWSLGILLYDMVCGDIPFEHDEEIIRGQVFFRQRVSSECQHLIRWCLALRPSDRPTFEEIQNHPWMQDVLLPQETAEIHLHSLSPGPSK

[24] = AUC (0 to infinity) in Sprague-Dawley rat at 30 mg/kg, up to 24 hrs by LC/MS/MS analysis; format: ADME, organism-based; parameters: dose 30 mg/kg, time infinity; conditions: in vivo
[25] = target: Vascular endothelial growth factor receptor 1 (Homo sapiens) (UniProt P17948); experiment: Inhibition of recombinant human FLT1 expressed in insect Sf21 cells assessed as remaining activity at 10 uM preincubated for 15 mins followed by poly(Glu:Tyr) substrate addition for 30 mins in presence of [gamma-32P]ATP by […] assay
Chain of Vascular endothelial growth factor receptor 1 (Homo sapiens) (P17948 whole entry): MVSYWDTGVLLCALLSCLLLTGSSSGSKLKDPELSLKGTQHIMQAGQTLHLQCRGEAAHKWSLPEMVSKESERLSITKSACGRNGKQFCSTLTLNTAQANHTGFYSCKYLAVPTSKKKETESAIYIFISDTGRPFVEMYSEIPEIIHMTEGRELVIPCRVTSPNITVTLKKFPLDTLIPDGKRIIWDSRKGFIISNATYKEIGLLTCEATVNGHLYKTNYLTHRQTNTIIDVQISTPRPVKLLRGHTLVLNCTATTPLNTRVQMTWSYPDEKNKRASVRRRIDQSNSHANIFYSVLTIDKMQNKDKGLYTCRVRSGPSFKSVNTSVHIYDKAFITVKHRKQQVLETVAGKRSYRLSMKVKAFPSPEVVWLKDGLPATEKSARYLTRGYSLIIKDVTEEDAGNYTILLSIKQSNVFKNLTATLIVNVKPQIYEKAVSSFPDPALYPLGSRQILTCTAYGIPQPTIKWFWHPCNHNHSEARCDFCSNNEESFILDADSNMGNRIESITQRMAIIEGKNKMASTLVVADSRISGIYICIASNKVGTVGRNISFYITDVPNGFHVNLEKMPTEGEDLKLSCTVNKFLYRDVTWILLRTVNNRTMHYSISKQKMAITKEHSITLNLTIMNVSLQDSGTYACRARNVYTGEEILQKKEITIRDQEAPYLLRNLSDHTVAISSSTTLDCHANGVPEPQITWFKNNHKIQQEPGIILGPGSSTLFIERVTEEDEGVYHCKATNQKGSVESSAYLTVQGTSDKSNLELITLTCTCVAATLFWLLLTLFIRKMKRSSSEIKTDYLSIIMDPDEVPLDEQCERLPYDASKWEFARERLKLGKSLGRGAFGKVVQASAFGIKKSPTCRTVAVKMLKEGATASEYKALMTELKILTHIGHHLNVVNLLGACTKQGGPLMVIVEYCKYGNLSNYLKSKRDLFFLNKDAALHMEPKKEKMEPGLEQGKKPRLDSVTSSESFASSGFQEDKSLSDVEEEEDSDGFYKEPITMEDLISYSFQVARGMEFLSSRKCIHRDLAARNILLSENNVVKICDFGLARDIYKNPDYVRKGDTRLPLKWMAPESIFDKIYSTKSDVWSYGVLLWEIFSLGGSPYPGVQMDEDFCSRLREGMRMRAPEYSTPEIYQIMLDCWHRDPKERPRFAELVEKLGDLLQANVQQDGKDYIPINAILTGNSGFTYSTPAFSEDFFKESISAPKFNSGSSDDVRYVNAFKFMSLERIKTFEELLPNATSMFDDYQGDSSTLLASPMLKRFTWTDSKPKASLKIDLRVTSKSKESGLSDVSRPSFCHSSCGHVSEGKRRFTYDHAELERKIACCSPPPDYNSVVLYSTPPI

[26] = Solubility of the compound in PBS at pH 7.4 after 1 hr by HPLC-MS analysis; format: physicochemical

For `CNCCOc1ccc(-c2sc3nc(-c4cccs4)nc(NN4C(=O)C=C(C)C4=O)c3c2C)cc1.Cl`, which Activity [1] is on record?
Its Activity is 112%.

What about the GI50 [2] of the same compound?
The GI50 was 564 nM.

And the Activity [3]?
The Activity was 111%.

What about the bioavailability [4] of the same compound?
Its bioavailability is 17%.

And the Activity [5]?
Its Activity is 103%.

What about the Activity [6] of the same compound?
Its Activity is 78%.

What about the Activity [7] of the same compound?
Its Activity is 31%.

What about the Activity [8] of the same compound?
Its Activity is 90%.

And the Activity [9]?
Its Activity is 101%.

And the half-life [10]?
The half-life was 15.2 h.

And the Activity [11]?
The Activity was 87%.

What about the clearance [12] of the same compound?
Its clearance is 36.6 mL/min/kg.

What about the Activity [13] of the same compound?
The Activity was 113%.

What about the Activity [14] of the same compound?
Its Activity is 44%.

What about the Activity [15] of the same compound?
Its Activity is 83%.

What about the Activity [16] of the same compound?
Its Activity is 35%.

What about the Activity [17] of the same compound?
Its Activity is 53%.

What about the GI50 [18] of the same compound?
Its GI50 is 559 nM.

And the Activity [19]?
Its Activity is 78%.

What about the Activity [20] of the same compound?
Its Activity is 93%.

What about the Activity [21] of the same compound?
Its Activity is 115%.

What about the Activity [22] of the same compound?
Its Activity is 89%.

And the Activity [23]?
Its Activity is 46%.

And the AUC(0-inf) [24]?
Its AUC(0-inf) is 2170 ng·h/mL.

What about the Activity [25] of the same compound?
Its Activity is 40%.

What about the solubility at 1 h [26] of the same compound?
Its solubility at 1 h is 2.96 µM.
